Results published in patent publication US4450272A, “Antiatherosclerotic 1-piperazine-thicarboxamides” (American Cyanamid Company, priority 1982, dated 1984).

Key:
[1] = system: serum lipids (sterol, triglycerides); assay: Ability to lower lipid levels in mammals (serum cholesterol and triglycerides in rats, 5 days in diet); assay type: in vivo, male rats COBS, CD, SD strain; conditions: male rats, oral, 0.1% compound in diet, vs control; for inhibition in vivo at 0.1 % in diet: Rattus norvegicus, 120 h, read-out: % Lowering of Serum Triglycerides
Description: The compounds were also tested for their ability to lower lipid levels in mammals. The compounds were administered orally admixed with diet to groups of four male rats COBS, CD, SD strain from Charles River Breeding Laboratories, Inc., Wilmington, Mass. A control group of eight rats was maintained on the diet alone; test groups were maintained on the diet plus the indicated percentage of test compound by weight. After 5 days treatment, serum cholesterol and triglyceride concentrations were determined by direct enzymatic procedures using a Centrifichem® System 400 autoanalyzer (Union Carbide Co.). Cholesterol concentrations were determined by the combined cholesterol esterase-cholesterol oxidase procedure of Roelschlau et. al., Zeit. Klin. Chem. Klin. Biochem., 12, 226 (1974). Triglycerides were determined by the combined method of lipase catalyzed hydrolysis of triglycerides to glycerol and free fatty acids [Bucolo, G. and David, H., Clin. Chem., 19, 476 (1973) and Wahlefeld, A. W., in "Methods of Enzymatic Analysis", Vol. 4, Bergmeyer, H. U., Editor, Academic Press, New York, N.Y. (1974), pp. 1831-1835] and the enzymatic oxidation of the glycerol which leads to the production of colored formazan [Stavropoulos, W. S. and Crouch, R. D., Clin. Chem., 20, No. 7, 857 (1974)]. […] Compounds which produce statistically significant lowering of either sterol or triglycerides are considered to be active.

[2] = target: T1, fatty acyl CoA:cholesterol acyl transferase (ACAT) (Rattus norvegicus, UniProt O70536); assay: Inhibition of ACAT (fatty acyl CoA:cholesterol acyl transferase) in rat adrenal supernatant; assay type: biochemical; conditions: rat adrenals, final concentration 5.2 μg./ml., pH 7.4, 37° C.
T1 construct: The supernatant, containing the microsomal fraction, served as the source of the cholesterol-esterifying enzyme; from tissue; host or cells: rat adrenals, 1000 x g supernatant containing the microsomal fraction
T1 sequence (O70536 1-545): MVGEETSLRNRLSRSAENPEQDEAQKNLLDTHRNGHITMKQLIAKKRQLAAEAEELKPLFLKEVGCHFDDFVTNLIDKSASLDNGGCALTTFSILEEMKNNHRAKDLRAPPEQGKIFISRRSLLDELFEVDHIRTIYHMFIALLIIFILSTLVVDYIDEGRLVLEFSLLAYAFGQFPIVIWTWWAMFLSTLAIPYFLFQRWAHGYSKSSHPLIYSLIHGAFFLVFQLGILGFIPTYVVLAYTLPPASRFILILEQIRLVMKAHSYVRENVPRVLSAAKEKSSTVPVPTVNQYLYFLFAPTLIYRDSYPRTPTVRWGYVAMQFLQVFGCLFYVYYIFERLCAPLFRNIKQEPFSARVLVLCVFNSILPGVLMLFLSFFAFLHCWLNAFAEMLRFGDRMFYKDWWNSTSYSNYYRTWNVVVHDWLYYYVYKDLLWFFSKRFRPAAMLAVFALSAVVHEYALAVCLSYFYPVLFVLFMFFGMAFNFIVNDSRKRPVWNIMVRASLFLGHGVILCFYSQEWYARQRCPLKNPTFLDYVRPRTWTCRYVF
Description: Compounds were tested for their ability to inhibit ACAT according to the following procedure:
Rat adrenals were homogenized in 0.2 M monobasic potassium phosphate buffer, pH 7.4, and centrifuged at 1000 times gravity for 15 minutes at 5° C. The supernatant, containing the microsomal fraction, served as the source of the cholesterol-esterifying enzyme, fatty acyl CoA:cholesterol acyl transferase (ACAT). A mixture comprising 50 parts of adrenal supernatant, 10 parts of albumin (BSA) (50 mg./ml.), 3 parts of test compound (final concentration 5.2 μg./ml.) and 500 parts of buffer was preincubated at 37° C. for 10 minutes. After treatment with 20 parts of oleoyl CoA (^14 C -0.4 μCi) the mixture was incubated at 37° C. for 10 minutes. A control mixture, omitting the test compound, was prepared and treated in the same manner. The lipids from the incubation mixture were extracted into an organic solvent and separated by thin-layer chromatography. The cholesterol ester fraction was counted in a scintillation counter. This procedure is a modification of that described by Hashimoto, et. al., Life Scie., 12 (Part II), 1-12 (1973).
Compounds which produce a statistically significant inhibition of the ACAT enzyme are considered to be active.

[3] = system: aortic sterol content; assay: Ability to decrease aortic sterol content without effecting serum sterol, cholesterol-fed cockerels; assay type: in vivo, Day-old-cockerels; parameters: key: Active: Compounds which produce statistically significant decreases in the aortic sterol content without having an effect on serum sterol are considered to be active; conditions: 525 mg. test compound and 20 g. cholesterol per kg. of diet, 14 days
Description: The compounds were further tested for their ability to decrease aortic sterol content without effecting serum sterol.
Day-old-cockerels were placed on diets consisting of pullet starter mash supplemented with either 20 g. cholesterol (control group) or 20 g. cholesterol and 525 mg. test compound (drug-treated group) per kg. of diet.
For the control diet 20 g. of cholesterol is dissolved in 200 ml. of chloroform, mixed into one kg. of pullet starter mash and then the chloroform is removed by evaporation.
For the drug-treatment group 525 mg. of the test compound is dissolved in 100 ml. of chloroform, mixed into a diet prepared as described above and then the chloroform is evaporated.
The cockerels were housed three per cage and given water and their respective diet ad libitum for 14 days. Blood was collected by cardiac puncture and the serum was saponified [Trinder, P., Analyst, 77, 321 (1952)] and extracted and the cholesterol content determined [Zlatkis, A. et. al., J. Lab. Clin. Med., 41, 486 (1953)]. The aortae were removed, cleaned of adventitial tissue and the sterol content determined according to the above procedures. Compounds which produce statistically significant decreases in the aortic sterol content without having an effect on serum sterol are considered to be active.

| inhibition at 5.2 µg/mL [2] | Compound | inhibition in vivo at 0.1 % in diet [1] | Result (decrease of aortic sterol content without effect on serum sterol) [3] | % Lowering of Serum Sterol [1] |
| --- | --- | --- | --- | --- |
| – | S=C(Nc1c(Cl)cccc1Cl)N1CCN(c2cnccn2)CC1 [2',6'-Dichloro-4-(2-pyrazinyl)-1-piperazinethiocarboxanilide] | 37% | – | – |
| – | S=C(Nc1ccccc1Cl)N1CCN(c2cnccn2)CC1 [2'-Chloro-4-(2-pyrazinyl)-1-piperazinethiocarboxanilide] | 49% | – | – |
| – | Fc1ccccc1NC(=S)N1CCN(c2cnccn2)CC1 [2'-Fluoro-4-(2-pyrazinyl)-1-piperazinethiocarboxanilide] | 21% | – | – |
| 31% | S=C(Nc1ccc(Cl)cc1)N1CCN(c2cnccn2)CC1 [4'-Chloro-4-(2-pyrazinyl)-1-piperazinethiocarboxanilide] | 49% | – | – |
| – | N#Cc1ccc(NC(=S)N2CCN(c3cnccn3)CC2)cc1 [4'-Cyano-4-(2-pyrazinyl)-1-piperazinethiocarboxanilide] | 55% | Active | – |
| – | Fc1ccc(NC(=S)N2CCN(c3cnccn3)CC2)cc1 [4'-Fluoro-4-(2-pyrazinyl)-1-piperazinethiocarboxanilide] | 37% | – | – |
| 56% | CC(C)c1ccc(NC(=S)N2CCN(c3cnccn3)CC2)cc1 [4'-Isopropyl-4-(2-pyrazinyl)-1-piperazinethiocarboxanilide] | – | – | – |
| – | CCNC(=S)N1CCN(c2cnccn2)CC1 [N--Ethyl-4-(2-pyrazinyl)-1-piperazinethiocarboxamide] | – | Active | – |
| – | S=C(Nc1ccccc1)N1CCN(c2cnccn2)CC1 [N--Phenyl-4-(2-pyrazinyl)-1-piperazinethiocarboxamide] | 52% | Active | – |
| 31% | S=C(NC1CCCCC1)N1CCN(c2cnccn2)CC1 [N-Cyclohexyl-4-(2-pyrazinyl)-1-piperazinethiocarboxamide] | 43% | – | – |
| 48% | CCNC(=S)N1CCN(c2ccc3ccccc3n2)CC1 [N-Ethyl-4-(2-quinolyl)-1-piperazinethiocarboxamide] | – | – | – |
| 40% | CCNC(=S)N1CCN(c2cncc(OC)n2)CC1 [N-Ethyl-4-(6-methoxy-2-pyrazinyl)-1-piperazinethiocarboxamide] | 38% | – | – |
| – | CNC(=S)N1CCN(c2cnccn2)CC1 [N-Methyl-4-(2-pyrazinyl)-1-piperazinethiocarboxamide] | 31% | Active | – |
| 33% | S=C(NCCc1ccccc1)N1CCN(c2cnccn2)CC1 [N-Phenethyl-4-(2-pyrazinyl)-1-piperazinethiocarboxamide] | – | – | 16% |
